Results taken from patent US20250163064A1, “QUINAZOLINE COMPOUNDS AND USES THEREOF AS INHIBITORS OF MUTANT KRAS PROTEINS” (AMGEN INC., priority 2022, published 2025).
Like-named read-outs stand apart in the source and are kept apart here.

Legend:
[1] = biological target: His-tagged KRAS G12D protein (Homo sapiens (Human), UniProt P01116, G12D); assay: KRAS G12D TR-FRET Assay; type: binding; conditions: biotinylated KRPep-2d, 10 μM GDP
Procedure: Compounds of interest were prepared in a dose-response titration in DMSO, and 80 nL were added via Labcyte Echo to each well of a 384-well plate (Perkin Elmer 6008280). The His-tagged KRAS G12D protein (Amgen) was diluted to 20 nM in Assay Buffer (20 mM HEPES, pH 7.4, 10 mM MgCl2, 50 mM NaCl, 0.1% BSA, 0.01% Tween-20, 10 μM GDP) and 2 μL was added to the appropriate wells of the 384-well plate. The plate was incubated for 30 minutes at rt. Biotinylated KRPep-2d substrate (Amgen) was diluted to […] in Assay Buffer and 2 AL was added to all wells and incubated for 1 hour at room temperature. Detection Reagent (0.4 nM LANCE Eu-W1024 Anti-6×His (Perkin Elmer AD0401), 5 nM streptavidin-d2 (Cisbio 610SADLA)) was prepared in Assay Buffer, then 4 AL was added to the plate and incubated for 1 h at rt. Plates were read using PerkinElmer En Vision (ex: 320 nm, em1: 665 nm, em2: 615 nm) and em1/em2 data was used to generate curve fits using a 4-parameter logistic model to calculate IC50 values.

[2] = system: Phosphorylation of ERK1/2 in AsPC-1 cells; assay: Phospho-ERK1/2 MSD Assay; type: cell-based
Procedure: AsPC-1 (ATCC® CRL-1682TM) cells were cultured in RPMI 1640 Medium (ThermoFisher Scientific 11875093) containing 10% fetal bovine serum (ThermoFisher Scientific 16000044) and 1× penicillin-streptomycin-glutamine (ThermoFisher Scientific 10378016). Sixteen hours prior to compound treatment, AsPC-1 cells were seeded in 96-well cell culture plates at a density of 25,000 cells/well and incubated at 37° C., 5% CO2. A compound dose-response titration was diluted in growth media, added to appropriate wells of a cell culture plate, and then incubated at 37° C., 5% CO2 for 2 hours. Following compound treatment, cells were washed with ice-cold Dulbecco's phosphate-buffered saline, no Ca^2+ or Mg^2+ (ThermoFisher Scientific 14190144), and then lysed in RIPA buffer (50 mM Tris-HCl pH 7.5, 1% Igepal, 0.5% sodium deoxycholate, 150 mM NaCl, and 0.5% sodium dodecyl sulfate) containing protease inhibitors (Roche 4693132001) and phosphatase inhibitors (Roche 4906837001). Phosphorylation of ERK1/2 in compound-treated lysates was assayed using Phospho-ERK1/2 Whole Cell Lysate kits (Meso Scale Discovery K151DWD) according to the manufacturer's protocol. Assay plates were read on a Meso Scale Discovery Sector Imager 6000, and data were analyzed using a 4-parameter logistic model to calculate IC50 values.

[3] = biological target: GDP-bound KRAS protein (aa 1-169), G12D and C118A; SOS-mediated nucleotide exchange (Homo sapiens (Human), UniProt P01116, C118A/G12D); assay: KRAS G12D Coupled Nucleotide Exchange Assay; type: biochemical; conditions: 2 h compound pre-incubation, GTP, cRAF AlphaScreen
Procedure: Purified GDP-bound KRAS protein (aa 1-169), containing both G12D and C118A amino acid substitutions and an N-terminal His-tag, was pre-incubated in assay buffer (25 mM HEPES pH 7.4, 10 mM MgCl2, and 0.01% Triton X-100) with a compound dose-response titration for 2 h. Following compound pre-incubation, purified SOS protein (aa 564-1049) and GTP (Roche 10106399001) were added to the assay wells and incubated for an additional 30 min. […] The assay plates were then read on a PerkinElmer En Vision Multilabel Reader, using AlphaScreen® technology, and data were analyzed using a 4-parameter logistic model to calculate IC50 values.

[4] = Homo sapiens, ASPC1, 2 h, read-out: 2 h p-ERK (AsPC-1 cells), IC50 (μM), AsPC-1 cells, 2 h compound treatment
[5] = read-out: 2 h p-ERK (AsPC-1 cells), IC50, AsPC-1 cells, 2 h compound treatment

Sequence of GDP-bound KRAS protein (aa 1-169), G12D and C118A; SOS-mediated nucleotide exchange (P01116 other isoform, or with tags, fused parts or gaps G12D/C118A): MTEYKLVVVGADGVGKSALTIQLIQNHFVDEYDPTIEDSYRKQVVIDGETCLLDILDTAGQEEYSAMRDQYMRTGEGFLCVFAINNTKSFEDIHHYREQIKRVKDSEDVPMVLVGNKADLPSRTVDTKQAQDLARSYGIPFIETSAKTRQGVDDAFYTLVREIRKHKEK
Sequence of His-tagged KRAS G12D protein (P01116-2 other isoform, or with tags, fused parts or gaps G12D): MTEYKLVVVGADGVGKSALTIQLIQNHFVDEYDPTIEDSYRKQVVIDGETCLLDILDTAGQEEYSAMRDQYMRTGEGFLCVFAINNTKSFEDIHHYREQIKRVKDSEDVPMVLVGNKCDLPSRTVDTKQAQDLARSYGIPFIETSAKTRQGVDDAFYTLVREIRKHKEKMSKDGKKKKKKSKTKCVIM

SMILES	IC50 [1] [nM]	IC50 [2, 4] [µM]	IC50 [3] [nM]	IC50 [2, 5] [µM]
N#Cc1c(N)sc2c(F)ccc(-c3c(Cl)cc4c(N5CCCC6(CCS(=O)(=O)C6)C5)nc(OC[C@@]56CCCN5C[C@H](F)C6)nc4c3F)c12 (stereo partly drawn) [Example 38, 2-Amino-4-(6-chloro-4-(2,2-dioxido-2-thia-7-azaspiro[4.5]decan-7-yl)-8-fluoro-2-(((2R,7aS)-2-fluorotetrahydro-1H-pyrrolizin-7a(5H)-yl)methoxy)quinazolin-7-yl)-7-fluorobenzo[b] thiophene-3-carbonitrile]	10	0.781	10	
CC1(O)COCCN(c2nc(OC[C@@]34CCCN3C[C@H](F)C4)nc3c(F)c(-c4ccc(F)c5sc(N)c(C#N)c45)c(Cl)cc23)C1 (single isomer, unassigned) [Example 24]	3		2	0.185
CCC1(O)COCCN(c2nc(OC[C@@]34CCCN3C[C@H](F)C4)nc3c(F)c(-c4ccc(F)c5sc(N)c(C#N)c45)c(Cl)cc23)C1 (single isomer, unassigned) [Example 44]	2		3	0.032
CC1(O)COCCN(c2nc(OC[C@@]34CCCN3C[C@H](F)C4)nc3c(F)c(-c4ccc(F)c5sc(N)c(C#N)c45)c(O)cc23)C1 (stereo partly drawn) [Example 63, 2-Amino-7-fluoro-4-(8-fluoro-2-(((2R,7aS)-2-fluorotetrahydro-1H-pyrrolizin-7a (H)-yl)methoxy)-6-hydroxy-4-(6-hydroxy-6-methyl-1,4-oxazepan-4-yl)quinazolin-7-yl)benzo[b]thiophene-3-carbonitrile]	4		3	> 10
N#Cc1c(N)sc2c(F)ccc(-c3c(Cl)cc4c(N5CCCC(=O)CC5)nc(OC[C@@]56CCCN5C[C@H](F)C6)nc4c3F)c12 [Example 16, 2-Amino-4-(6-chloro-8-fluoro-2-(((2R,7a.S)-2-fluorotetrahydro-1H-pyrrolizin-7a(5H)-yl)methoxy)-4-(4-oxoazepan-1-yl)quinazolin-7-yl)-7-fluorobenzo[b] thiophene-3-carbonitrile]	2	0.076	3	
C[C@]1(CO)CCCN1c1nc(OC[C@@]23CCCN2C[C@H](F)C3)nc2c(F)c(-c3ccc(F)c4sc(N)c(C#N)c34)c(Cl)cc12 [Example 52, 2-Amino-4-(6-chloro-8-fluoro-2-(((2R,7aS)-2-fluorotetrahydro-1H-pyrrolizin-7a(5H)-yl)methoxy)-4-((R)-2-(hydroxymethyl)-2-methylpyrrolidin-1-yl)quinazolin-7-yl)-7-fluorobenzo[b] thiophene-3-carbonitrile]	8	0.505	7	
C[C@@H]1[C@H](O)CCN1c1nc(OC[C@@]23CCCN2C[C@H](F)C3)nc2c(F)c(-c3ccc(F)c4sc(N)c(C#N)c34)c(Cl)cc12 [Example 65, 2-Amino-4-(6-chloro-8-fluoro-2-(((2R,7aS)-2-fluorotetrahydro-1H-pyrrolizin-7a(5H)-yl)methoxy)-4-((2R,3R)-3-hydroxy-2-methylpyrrolidin-1-yl)quinazolin-7-yl)-7-fluorobenzo[b] thiophene-3-carbonitrile]	12	0.33	6	
CC1(O)COCCN(c2nc(OC[C@@]34CCCN3C[C@H](F)C4)nc3c(F)c(-c4ccc(F)c5sc(N)c(C#N)c45)c(Cl)cc23)C1 (single isomer, unassigned) [Example 22]	2		2	0.013

Other lines, results leading:

IC50 [1] [nM]	IC50 [2, 4] [µM]	IC50 [3] [nM]	IC50 [2, 5] [µM]	SMILES
2	0.079	2		N#Cc1c(N)sc2c(F)ccc(-c3c(Cl)cc4c(N5CCOC[C@@H](O)C5)nc(OC[C@@]56CCCN5C[C@H](F)C6)nc4c3F)c12 [Example 32, 2-Amino-4-(6-chloro-8-fluoro-2-(((2R,7aS)-2-fluorotetrahydro-1H-pyrrolizin-7a(5H)-yl)methoxy)-4-((S)-6-hydroxy-1,4-oxazepan-4-yl)quinazolin-7-yl)-7-fluorobenzo[b] thiophene-3-carbonitrile]
3	0.061	3		N#Cc1c(N)sc2c(F)ccc(-c3c(Cl)cc4c(N5CCCCC(C#N)C5)nc(OC[C@@]56CCCN5C[C@H](F)C6)nc4c3F)c12 (stereo partly drawn) [Example 57, 1-(7-(2-Amino-3-cyano-7-fluorobenzo[b]thiophen-4-yl)-6-chloro-8-fluoro-2-(((2R,7aS)-2-fluorotetrahydro-1H-pyrrolizin-7a(5H)-yl)methoxy)quinazolin-4-yl)azepane-3-carbonitrile]
24	0.586	16		C[C@@H]1CCCN1c1nc(OC[C@@]23CCCN2C[C@H](F)C3)nc2c(F)c(-c3ccc(F)c4sc(N)c(C#N)c34)c(Cl)cc12 [Example 66, 2-Amino-4-(6-chloro-8-fluoro-2-(((2R,7aS)-2-fluorotetrahydro-1H-pyrrolizin-7a(5H)-yl)methoxy)-4-((R)-2-methylpyrrolidin-1-yl)quinazolin-7-yl)-7-fluorobenzo[b] thiophene-3-carbonitrile]
10	0.532	8		N#Cc1c(N)sc2c(F)ccc(-c3c(Cl)cc4c(N5CCC6CCC(C5)O6)nc(OC[C@@]56CCCN5C[C@H](F)C6)nc4c3F)c12 (stereo partly drawn) [Example 21]
5	0.205	6		N#Cc1c(N)sc2c(F)ccc(-c3c(Cl)cc4c(N5CCC[C@H](O)C5)nc(OC[C@@]56CCCN5C[C@H](F)C6)nc4c3F)c12 [Example 36, 2-Amino-4-(6-chloro-8-fluoro-2-(((2R,7aS)-2-fluorotetrahydro-1H-pyrrolizin-7a(5H)-yl)methoxy)-4-((S)-3-hydroxypiperidin-1-yl)quinazolin-7-yl)-7-fluorobenzo[b] thiophene-3-carbonitrile]
14	1.09	13		N#Cc1c(N)sc2c(F)ccc(-c3c(Cl)cc4c(N5CCC[C@@H](C#N)C5)nc(OC[C@@]56CCCN5C[C@H](F)C6)nc4c3F)c12 [Example 54, (3R)-1-(7-(2-Amino-3-cyano-7-fluorobenzo[b]thiophen-4-yl)-6-chloro-8-fluoro-2-(((2R,7aS)-2-fluorotetrahydro-1H-pyrrolizin-7a(5H)-yl)methoxy)quinazolin-4-yl)piperidine-3-carbonitrile]
1	0.119	1		N#Cc1c(N)sc2c(F)ccc(-c3c(Cl)cc4c(N5CCC[C@H]5C#N)nc(OC[C@@]56CCCN5C[C@H](F)C6)nc4c3F)c12 [Example 53, (2S)-1-(7-(2-Amino-3-cyano-7-fluorobenzo[b]thiophen-4-yl)-6-chloro-8-fluoro-2-(((2R,7aS)-2-fluorotetrahydro-1H-pyrrolizin-7a(5H)-yl)methoxy)quinazolin-4-yl)pyrrolidine-2-carbonitrile]
4	0.199	5		N#Cc1c(N)sc2c(F)ccc(-c3c(Cl)cc4c(N5CCC[C@@H](O)C5)nc(OC[C@@]56CCCN5C[C@H](F)C6)nc4c3F)c12 [Example 35, 2-Amino-4-(6-chloro-8-fluoro-2-(((2R,7aS)-2-fluorotetrahydro-1H-pyrrolizin-7a(5H)-yl)methoxy)-4-((R)-3-hydroxypiperidin-1-yl)quinazolin-7-yl)-7-fluorobenzo[b] thiophene-3-carbonitrile]
